Each structure is given as a SMILES string.

The nature of the data set: gradient 5% acetonitrile 3 min, to 50% in 2 min, to 85% in 15 min, held 3 min, 100 µL/min. The conditions noted are these: column: Zorbax Extend-C18 2.1 x 50 mm; eluents: water / acetonitrile, 0.1% formic acid. In short, it runs like this:
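Pure standards were analyzed in mixtures of ~100 molecules using HPLC coupled to a quadrupole time-of-flight mass spectrometer, in both positive and negative ionization mode. Separation used a Zorbax Extend-C18 column (2.1 × 50 mm, 1.8 μm) at 100 μL/min, with water and acetonitrile each containing 0.1% formic acid. Dead and dwell volumes were 40 μL and 900 μL, and data were collected over 3 months. Retention time was read from computationally picked adduct peaks, each inspected manually.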
As to `O=C1CN(S(=O)(=O)c2ccc([N+](=O)[O-])cc2)c2ccccc2N1`, the RP-LC retention time turned out to be 738 s.

`CCC(CC)C(=O)N1CCN(Cc2nc3cc(C(=O)N4CCCC4)ccc3n2C)CC1`: the RP-LC retention time was found to be 598 s.

With `CC(Oc1cccc(Cl)c1)c1nc(-c2ccc3ncn(C)c3c2)no1` (centres undefined), the RP-LC retention time was determined as 827 s.

For the compound `O=C(Cn1nc2c3cc(-c4ccccc4)nn3ccn2c1=O)Nc1cccc(Br)c1`, the RP-LC retention time came to 952 s.

Compound `Cc1ccc(S(=O)(=O)N2CCCN(c3ccc(=O)n(-c4ccccc4)n3)CC2)cc1` showed an RP-LC retention time of 835 s.

Compound `CN1C(=O)c2cc(C(=O)N3CCCCCC3)nn2CC1(C)C(=O)NC1CCCCCC1` (centres undefined) displayed an RP-LC retention time of 802 s.

For the compound `Cc1ccc(NS(=O)(=O)c2cc(-c3nc(C(C)C)cs3)cs2)cc1C`, the RP-LC retention time worked out at 1260 s.

In the case of `COc1ccc(NC(=O)CSc2cc(N3CCN(c4ccc(OC)cc4)CC3)ncn2)cc1`, the RP-LC retention time was 859 s.

`CN(C)CC1CN(C(=O)c2ccc3c(c2)OCO3)CC12CCOCC2` (centres undefined): the RP-LC retention time came to 562 s.

Regarding `Cc1cnc(C2CCOCC2)n1C1CCCN(S(=O)(=O)Cc2ccccc2)C1` (centres undefined), the RP-LC retention time was 646 s.

`CC(C)CN1CCn2cc(S(=O)(=O)NCc3cc(F)cc(F)c3)cc2C1=O` registered an RP-LC retention time of 808 s.

Turning to `CNC(=O)Nc1cccn2nc(-c3ccccc3)nc12`, the RP-LC retention time was found to be 702 s.

`COC(=O)C1CCN(C(=O)Cc2csc(Nc3ccc(F)cc3)n2)CC1` gave an RP-LC retention time of 689 s.

As for `Cc1ccc(-c2noc(-c3ccc(NC(=O)c4ccc(Br)o4)cc3)n2)cc1`, the RP-LC retention time was 1290 s.

Take `Cn1cccc1C(=O)N1CCC(c2noc(-c3ccncc3)n2)C1` (centres undefined): the RP-LC retention time amounted to 720 s.

Regarding `CCC(c1cccs1)N1C(=O)[C@H]2CN(S(=O)(=O)c3cc(F)cc(F)c3)C[C@H]2C1=O` (some centres undefined), the RP-LC retention time was 1040 s.

In the case of `CC(C)(C)c1ccc(C(=O)Nc2nc(-c3ccc(F)cc3)cs2)cc1`, the RP-LC retention time turned out to be 1310 s.

Turning to `CCNC(=O)NCCC1CCN(S(=O)(=O)c2ccc(C)cc2)CC1`, the RP-LC retention time was determined as 748 s.

In turn, `O=C(NC1CCCCC1)c1cccc(Nc2c(-c3ccc(Cl)cc3)nc3cnccn23)c1` registered an RP-LC retention time of 935 s.

For the compound `CCOc1cccc2cc(C(=O)Nc3ccccc3S(C)(=O)=O)oc12`, the RP-LC retention time was found to be 931 s.

`Cc1noc(C)c1S(=O)(=O)N1CCC(Cn2c(C)cnc2-c2ccccc2)C1` (centres undefined) showed an RP-LC retention time of 658 s.

`COc1ccccc1NC(=O)C12CCC(C)(C(=O)C1)C2(C)C` (centres undefined): the RP-LC retention time is 848 s.

Regarding `CCCNC(=O)c1n[nH]c2c1CCCCCC2`, the RP-LC retention time was 776 s.

Compound `CCCn1c(-c2cccc(C(=O)NC3CCCC3)c2)nc2cccnc21` returned an RP-LC retention time of 772 s.

`COc1ccc(C2(C(=O)N3CCC4(CC3)C(OC)C(=O)N4c3cccc(F)c3)CC2)cc1` (centres undefined) registered an RP-LC retention time of 901 s.

In turn, `Cc1ccc(N2CC(c3nc(-c4ccc5c(c4)nc(C)c(=O)n5C4CCCC4)no3)CC2=O)cc1` (centres undefined) came in with an RP-LC retention time of 1100 s.

`O=C(Cn1nc2c(cc1=O)CCCC2)Nc1ccc(Br)cc1` displayed an RP-LC retention time of 747 s.

The compound `COc1ccccc1-c1ccc(SCC(=O)Nc2ccc3c(c2)OCCO3)nn1` had an RP-LC retention time of 792 s.

In turn, `O=c1[nH]cc(I)cc1I` returned an RP-LC retention time of 723 s.

Take `COc1ccccc1N1CCN(C(=O)Cn2c(N3CCc4ccccc4C3)nc(C)cc2=O)CC1`: the RP-LC retention time came to 759 s.

`CNC(=O)c1cc(-c2cccc(OC)c2)n[nH]1` had an RP-LC retention time of 665 s.

`CC(=O)N1CCc2cc(N3CC(C(=O)Nc4ccc(N5CCOCC5)cc4)CC3=O)ccc21` (centres undefined) showed an RP-LC retention time of 629 s.

With `COc1ccc(NC(=O)c2cn(-c3cc(N4CCCC(C)C4)ncn3)cn2)c(OC)c1` (centres undefined), the RP-LC retention time came out at 1170 s.

`CCC(CC)C(=O)N1CCc2[nH]nc(C(=O)NCCCc3ccccc3)c2C1` showed an RP-LC retention time of 797 s.

Regarding `Cc1ccc(-n2cc3c(c(C(=O)N4CCN(c5ccccn5)CC4)c2=O)CC(C)(C)CC3=O)cc1`, the RP-LC retention time worked out at 659 s.

In turn, `CC(C)CCNC(=O)C1(C)Cn2nc(C(=O)NCc3ccc(F)cc3)cc2C(=O)N1C` (centres undefined) came in with an RP-LC retention time of 727 s.

For `Cc1cccc(C)c1-n1ccn(Cc2nc(-c3ccccc3)no2)c(=O)c1=O`, the RP-LC retention time came to 865 s.

Compound `COc1ccc(N2CCN(c3ncc4c(n3)CCN(Cc3cccc(F)c3)C4)CC2)cc1` yielded an RP-LC retention time of 648 s.

For the compound `COc1ccc(C(=O)N2CCCCC2c2nncn2C)cn1` (centres undefined), the RP-LC retention time came to 603 s.

For the compound `COCC(=O)N1CCc2c([nH]c3ccccc23)C1c1ccc(SC)cc1` (centres undefined), the RP-LC retention time was 998 s.

Consider `CCCc1ccc(S(=O)(=O)N2CCC3(CC2)C(=O)N(CC)c2ccccc23)cc1`, for which the RP-LC retention time turned out to be 1160 s.

For the compound `Cc1cc(-n2c(C)nc3ccccc3c2=O)ccc1NC(=O)C(C)Oc1cccc(Cl)c1` (centres undefined), the RP-LC retention time amounted to 935 s.

On to `CNC(=O)c1cc(N2CCCC2)nc2c(Cl)cccc12`, for which the RP-LC retention time is 620 s.

`Cc1ccc(C2=NC3(CCN(C(=O)c4c[nH]c5ccccc45)CC3)ON2)cc1`: the RP-LC retention time came out at 769 s.

Compound `CCN1C(=O)c2ccccc2Oc2ccc(C(=O)NCc3ccc(C)cc3)cc21` had an RP-LC retention time of 958 s.

The compound `CCCC(=O)N1CCc2c(c(C(=O)N3CCCC(C(=O)Nc4ccccc4C)C3)nn2C)C1` (centres undefined) gave an RP-LC retention time of 759 s.

For `CN(Cc1ccccc1)C(=O)c1nnc(-c2ccc(S(=O)(=O)N3CCCCC3)cc2)o1`, the RP-LC retention time was determined as 1040 s.

`Cc1ccc(-c2nnc(C)c(NC3CC3)n2)cc1` came in with an RP-LC retention time of 644 s.

On to `CNC(=O)C1CN(C(=O)Cc2ccc(C)cc2)CC12CCCC2` (centres undefined), for which the RP-LC retention time stood at 722 s.

As for `Cc1cc(C)cc(NC(=O)c2c(O)c3cccnc3n(-c3ccc(F)cc3)c2=O)c1`, the RP-LC retention time was 803 s.

For `O=C(CC1CCN(S(=O)(=O)c2ccc(Cl)s2)CC1)N1CCCCC1`, the RP-LC retention time is 946 s.

`Cc1nc2ccc3nc(NC(=O)C4CCN(S(C)(=O)=O)CC4)sc3c2s1`: the RP-LC retention time was 709 s.

Regarding `O=C(c1ccc(OCC2CCCN2C(=O)c2ccc(F)cc2F)cc1)N1CCOCC1` (centres undefined), the RP-LC retention time amounted to 723 s.

Take `CCOc1ccc(CC(=O)NC2CCN(c3cc(-c4cccs4)[nH]n3)C2)cc1OCC` (centres undefined): the RP-LC retention time amounted to 727 s.

Take `CCOC(=O)c1cccc(NC(=O)Cn2ccc3ccc(-c4nnc(CC)o4)cc32)c1`: the RP-LC retention time is 910 s.

The compound `COc1ccc(-n2ccc(=O)c(-c3nc(-c4cccc(OC)c4OC)no3)n2)cc1` displayed an RP-LC retention time of 824 s.

Compound `CCOC(=O)COc1cc(-c2ccccc2)nc2ccc(NC(=O)COC)cc12` showed an RP-LC retention time of 695 s.

Take `CCc1ccc(NC(=O)c2ccc(=O)n(CCN3CCOCC3)c2)cc1`: the RP-LC retention time turned out to be 637 s.

`Cc1c(C(=O)N2CCN(C(C)C)CC2)cnn1-c1cc(-c2nc(C(C)(C)C)no2)ccn1` yielded an RP-LC retention time of 685 s.

On to `O=S(=O)(Cc1ccccc1F)N1CCC(c2noc(COCC3CC3)n2)CC1`, for which the RP-LC retention time stood at 962 s.

For `O=C(CCn1nnc2cc(-c3noc(Cc4ccc(F)cc4)n3)ccc21)N1CCCC1`, the RP-LC retention time turned out to be 860 s.

Compound `Cc1nc2cc3c(cc2n1CC(=O)Nc1ccc2c(c1)OCCCO2)OCCO3` showed an RP-LC retention time of 618 s.

Take `CCOC(=O)c1ccc(NC(=O)C2CCC(=O)N2S(=O)(=O)c2ccc(C)c(C)c2)cc1` (centres undefined): the RP-LC retention time came out at 978 s.

In the case of `COc1ccccc1NC(=O)CC(=O)Nc1ccc2nc3n(c(=O)c2c1)CCCCC3`, the RP-LC retention time turned out to be 742 s.

With `Cc1ccc(-c2ccc(N3CCCC(C(=O)N4CCN(C(C)C)CC4)C3)nn2)cc1C` (centres undefined), the RP-LC retention time stood at 623 s.

`Cc1nc(-c2cccnc2)nc2c1CCC(=O)N2Cc1cccs1` showed an RP-LC retention time of 740 s.

Regarding `COc1ccc2[nH]cc(CCNC(=O)Cn3nc4c(cc3=O)CCCCC4)c2c1`, the RP-LC retention time stood at 756 s.

In turn, `COc1cccc(CNC(=O)c2nc(N3CCOCC3)c3c(C)cc(C)nc3n2)c1` had an RP-LC retention time of 625 s.

For `CCCNc1cc(N2CCC(CCC(=O)NCCc3cccs3)CC2)ncn1`, the RP-LC retention time was found to be 662 s.

The compound `O=C(NCC(=O)N1CCCc2ccccc21)c1ccc(Br)cc1` had an RP-LC retention time of 892 s.

Consider `Cc1ccccc1NC(=O)NC1CCN(C(=O)C2CC2)C1` (centres undefined), for which the RP-LC retention time was 660 s.

Compound `COC(=O)c1c(NCCO)c2cc(F)ccc2[nH]c1=O` yielded an RP-LC retention time of 590 s.

For the compound `O=C(CCn1cnc2cc(-c3noc(CCc4c[nH]c5ccccc45)n3)ccc21)N1CCCC1`, the RP-LC retention time came out at 734 s.

`COc1ccccc1N1C(=O)c2cccc3cccc(c23)C1=O`: the RP-LC retention time turned out to be 832 s.

For the compound `CCOc1ccc(-c2[nH]ncc2CNS(=O)(=O)Cc2ccc(C)c(C)c2)cc1`, the RP-LC retention time amounted to 896 s.

The compound `CCCN1CCN(c2ncnc3sc(C(=O)NCCCN4CCCC4)c(C)c23)CC1` displayed an RP-LC retention time of 583 s.

As for `Fc1ccccc1-c1nc2ccn(Cc3ccc(-c4ccc(C(F)(F)F)cc4C(F)(F)F)nn3)cc-2n1`, the RP-LC retention time was determined as 849 s.

With `CN1C(=O)c2cccn2CC1CNS(=O)(=O)c1ccccc1` (centres undefined), the RP-LC retention time turned out to be 668 s.

As to `Cc1nc(-c2ccc(N3CCN(C(=O)c4cccs4)CC3)nc2)sc1C`, the RP-LC retention time was determined as 823 s.

The values are drawn from the METLIN SMRT retention time set (Domingo-Almenara et al. 2019).
